Source: ChEMBL document CHEMBL1130604, “Synthesis and biological activity of novel thiazolidinediones” (1998)
Calls of active or inactive are those of the source. No cut-off for these calls is given here.

How the values were obtained:
[1] = system: Rattus norvegicus; test: Compound was tested for antiinflammatory activity by measuring percentage reduction in inflammation at a dose of 100 mg/kg in rats; format: functional
[2] = system: Mus musculus; test: Compound was tested for antidiabetic activity by measuring percentage reduction in triglycerides at a dose of 30 mg/kg; NE=No effect; format: functional, organism-based; parameters: dose 30 mg/kg
[3] = system: Mus musculus; test: Compound was tested for antidiabetic activity by measuring percentage reduction in plasma glucose at a dose of 30 mg/kg; NE=No effect; format: functional, organism-based; parameters: dose 30 mg/kg
[4] = system: Mus musculus; test: Compound was tested for antidiabetic activity by measuring percentage reduction in triglycerides at a dose of 30 mg/kg; format: functional
[5] = system: Mus musculus; test: Compound was tested for antidiabetic activity by measuring percentage reduction in plasma glucose at a dose of 30 mg/kg; format: functional
[6] = system: Rattus norvegicus; test: Compound was tested for antiinflammatory activity by measuring percentage reduction in inflammation at a dose of 100 mg/kg in rats; NE=No effect; format: functional, organism-based; parameters: dose 100 mg/kg

C/C(CCc1ccc2cc(OCC3(C)CCc4c(C)c(O)c(C)c(C)c4O3)ccc2c1)=C1/SC(=O)NC1=O (stereo unspecified)
Reduction [1]: 12%
Reduction [2]: inactive
Reduction [3]: inactive

Cc1c(C)c2c(c(C)c1O)CCC(C)(COc1ccc(CC3SC(=O)NC3=O)cc1)O2 (stereo unspecified) [TROGLITAZONE]
Reduction [1]: 3%
Reduction [4]: 50%
Reduction [5]: 16%

C/C(CCc1ccc2cc(O)ccc2c1)=C1\SC(=O)NC1=O
Reduction [2]: inactive
Reduction [5]: 20%
Reduction [6]: inactive

C/C(=C1/SC(=O)NC1=O)c1cccs1
Reduction [4]: 18%
Reduction [3]: inactive
Reduction [6]: inactive

C/C(=C1\SC(=O)NC1=O)c1ccco1
Reduction [1]: 12%
Reduction [2]: inactive
Reduction [5]: 16%

COc1ccc2cc(/C(CC(C)=O)=C3/SC(=O)NC3=O)ccc2c1
Reduction [1]: 7%
Reduction [2]: inactive
Reduction [3]: inactive

COc1ccc2cc(/C(CC(C)=O)=C3\SC(=O)NC3=O)ccc2c1
Reduction [1]: 25%
Reduction [2]: inactive
Reduction [5]: 16%

COc1ccc2cc(/C(C)=C3/SC(=O)NC3=O)ccc2c1
Reduction [1]: 7%
Reduction [2]: inactive
Reduction [5]: 26%

COc1ccc2cc(CCC(C)=O)ccc2c1 [NABUMETONE]
Reduction [1]: 30%
Reduction [2]: inactive
Reduction [3]: inactive

O=C1NC(=O)C(Cc2ccc3cc(OCc4ccccc4F)ccc3c2)S1 (stereo unspecified) [NETOGLITAZONE]
Reduction [1]: 18%
Reduction [4]: 72%
Reduction [5]: 60%

COc1ccc2cc(CC/C(C)=C3/SC(=O)NC3=O)ccc2c1
Reduction [1]: 10%
Reduction [4]: 50%
Reduction [5]: 16%

COc1ccc2cc(CCC(C)C3SC(=O)NC3=O)ccc2c1 (stereo unspecified)
Reduction [1]: 17%
Reduction [4]: 44%
Reduction [5]: 8%
